Experimental findings from ChEMBL document CHEMBL3046822, “Synthesis, antiplatelet aggregation activity, and molecular modeling study of novel substituted-piperazine analogues” (2011) are described below.

Active and inactive are the calls of the source. The rule behind the calls is not given here.

Test [1] is described as follows: Antiaggregating activity in Homo sapiens (human) platelet rich plasma assessed as disaggregation of ADP-induced platelet aggregation at 0.25 uM incubated for 4 min prior to ADP-induction measured for 5.5 min by turbidometric analysis relative to control. In kind it is functional.
A short description of test [2]: Antiaggregating activity in Homo sapiens (human) platelet rich plasma assessed as ADP-induced platelet aggregation at 0.1 uM incubated for 4 min prior to ADP-induction measured for 5.5 min by turbidometric analysis (reference value: 54 to 88%). Type of test: functional.
The test system of test [3] is Platelet. Description: Antiaggregating activity in Homo sapiens (human) platelet rich plasma assessed as inhibition of arachidonic acid-induced platelet aggregation at 0.5 uM incubated for 4 min prior to arachidonic acid-induction measured for 5.5 min by turbidometric analysis. Type of test: functional.
Test [4] concerns Platelet. Put plainly: Antiaggregating activity in Homo sapiens (human) platelet rich plasma assessed as inhibition of arachidonic acid-induced platelet aggregation at 1 uM incubated for 4 min prior to arachidonic acid-induction measured for 5.5 min by turbidometric analysis. In kind it is functional, cell-free.
For test [5], the system named is Platelet. Description: Antiaggregating activity in Homo sapiens (human) platelet rich plasma assessed as inhibition of adrenaline-induced platelet aggregation at 0.5 uM incubated for 4 min prior to adrenaline-induction measured for 5.5 min by turbidometric analysis. Type of test: functional, cell-free.
The test system of test [6] is Platelet. Put plainly: Antiaggregating activity in Homo sapiens (human) platelet rich plasma assessed as inhibition of adrenaline-induced platelet aggregation at 1 uM incubated for 4 min prior to adrenaline-induction measured for 5.5 min by turbidometric analysis. In kind it is functional, cell-free.
In test [7] the test system is Platelet. Description: Antiaggregating activity in Homo sapiens (human) platelet rich plasma assessed as inhibition of adrenaline-induced platelet aggregation at 0.1 uM incubated for 4 min prior to adrenaline-induction measured for 5.5 min by turbidometric analysis. In kind it is functional, cell-free.
The test system of test [8] is Platelet. Description: Antiaggregating activity in Homo sapiens (human) platelet rich plasma assessed as inhibition of adrenaline-induced platelet aggregation at 0.25 uM incubated for 4 min prior to adrenaline-induction measured for 5.5 min by turbidometric analysis. Type of test: functional, cell-free.
Test [9] is described as follows: Antiaggregating activity in Homo sapiens (human) platelet rich plasma assessed as ristocetin-induced platelet aggregation at 1 uM incubated for 4 min prior to ristocetin-induction measured for 5.5 min by turbidometric analysis (reference value: 65 to 99%). In kind it is functional.
Test [10] deals with Platelet. Description: Antiaggregating activity in Homo sapiens (human) platelet rich plasma assessed as inhibition of ADP-induced platelet aggregation at 0.5 uM incubated for 4 min prior to ADP-induction measured for 5.5 min by turbidometric analysis. In kind it is functional, cell-free.
Test [11] deals with Platelet. Put plainly: Antiaggregating activity in Homo sapiens (human) platelet rich plasma assessed as inhibition of ADP-induced platelet aggregation at 1 uM incubated for 4 min prior to ADP-induction measured for 5.5 min by turbidometric analysis. Type of test: functional, cell-free.
In test [12] the test system is Platelet. Description: Antiaggregating activity in Homo sapiens (human) platelet rich plasma assessed as inhibition of collagen-induced platelet aggregation at 0.25 uM incubated for 4 min prior to collagen-induction measured for 5.5 min by turbidometric analysis. Type of test: functional.
The subject of test [13] is Platelet. Description: Antiaggregating activity in Homo sapiens (human) platelet rich plasma assessed as inhibition of collagen-induced platelet aggregation at 0.5 uM incubated for 4 min prior to collagen-induction measured for 5.5 min by turbidometric analysis. In kind it is functional, cell-free.
A short description of test [14]: Antiaggregating activity in Homo sapiens (human) platelet rich plasma assessed as collagen-induced platelet aggregation at 0.1 uM incubated for 4 min prior to collagen-induction measured for 5.5 min by turbidometric analysis (reference value: 50 to 98%). Type of test: functional.
The subject of test [15] is Platelet. Put plainly: Antiaggregating activity in Homo sapiens (human) platelet rich plasma assessed as inhibition of collagen-induced platelet aggregation at 1 uM incubated for 4 min prior to collagen-induction measured for 5.5 min by turbidometric analysis. Type of test: functional, cell-free.
Test [16] in a line: Antiaggregating activity in Homo sapiens (human) platelet rich plasma assessed as disaggregation of ristocetin-induced platelet aggregation at 0.5 uM incubated for 4 min prior to ristocetin-induction measured for 5.5 min by turbidometric analysis relative to control. Type of test: functional.
A short description of test [17]: Antiaggregating activity in Homo sapiens (human) platelet rich plasma assessed as disaggregation of ristocetin-induced platelet aggregation at 0.25 uM incubated for 4 min prior to ristocetin-induction measured for 5.5 min by turbidometric analysis relative to control. Type of test: functional.
The nature of test [18]: Antiaggregating activity in Homo sapiens (human) platelet rich plasma assessed as ristocetin-induced platelet aggregation at 0.1 uM incubated for 4 min prior to ristocetin-induction measured for 5.5 min by turbidometric analysis (reference value: 65 to 99%). In kind it is functional.
The subject of test [19] is Platelet. Description: Antiaggregating activity in Homo sapiens (human) platelet rich plasma assessed as inhibition of arachidonic acid-induced platelet aggregation at 0.1 uM incubated for 4 min prior to arachidonic acid-induction measured for 5.5 min by turbidometric analysis. In kind it is functional, cell-free.
For test [20], the system named is Platelet. Put plainly: Antiaggregating activity in Homo sapiens (human) platelet rich plasma assessed as inhibition of arachidonic acid-induced platelet aggregation at 0.25 uM incubated for 4 min prior to arachidonic acid-induction measured for 5.5 min by turbidometric analysis. Type of test: functional, cell-free.
Test [21] can be described thus: Antiaggregating activity in Homo sapiens (human) platelet rich plasma assessed as ADP-induced platelet aggregation at 0.25 uM incubated for 4 min prior to ADP-induction measured for 5.5 min by turbidometric analysis (reference value: 54 to 88%). Type of test: functional.
A short description of test [22]: Antiaggregating activity in Homo sapiens (human) platelet rich plasma assessed as ristocetin-induced platelet aggregation at 0.5 uM incubated for 4 min prior to ristocetin-induction measured for 5.5 min by turbidometric analysis (reference value: 65 to 99%). Type of test: functional.
A short description of test [23]: Antiaggregating activity in Homo sapiens (human) platelet rich plasma assessed as ADP-induced platelet aggregation at 0.5 uM incubated for 4 min prior to ADP-induction measured for 5.5 min by turbidometric analysis (reference value: 54 to 88%). In kind it is functional.
Test [24] in a line: Antiaggregating activity in Homo sapiens (human) platelet rich plasma assessed as collagen-induced platelet aggregation at 0.25 uM incubated for 4 min prior to collagen-induction measured for 5.5 min by turbidometric analysis (reference value: 50 to 98%). Type of test: functional.
Test [25] in a line: Antiaggregating activity in Homo sapiens (human) platelet rich plasma assessed as ristocetin-induced platelet aggregation at 0.25 uM incubated for 4 min prior to ristocetin-induction measured for 5.5 min by turbidometric analysis (reference value: 65 to 99%). In kind it is functional.
A short description of test [26]: Antiaggregating activity in Homo sapiens (human) platelet rich plasma assessed as arachidonic acid-induced platelet aggregation at 0.1 uM incubated for 4 min prior to arachidonic acid-induction measured for 5.5 min by turbidometric analysis (reference value: 55 to 100%). In kind it is functional.
The nature of test [27]: Antiaggregating activity in Homo sapiens (human) platelet rich plasma assessed as disaggregation of arachidonic acid-induced platelet aggregation at 0.25 uM incubated for 4 min prior to arachidonic acid-induction measured for 5.5 min by turbidometric analysis relative to control. In kind it is functional.
Test [28] is described as follows: Antiaggregating activity in Homo sapiens (human) platelet rich plasma assessed as disaggregation of arachidonic acid-induced platelet aggregation at 0.5 uM incubated for 4 min prior to arachidonic acid-induction measured for 5.5 min by turbidometric analysis relative to control. In kind it is functional.
The subject of test [29] is Platelet. Description: Antiaggregating activity in Homo sapiens (human) platelet rich plasma assessed as inhibition of ADP-induced platelet aggregation at 0.8 uM incubated for 4 min prior to ADP-induction measured for 5.5 min by turbidometric analysis. Type of test: functional, cell-free.
Test [30] deals with Platelet. Put plainly: Antiaggregating activity in Homo sapiens (human) platelet rich plasma assessed as inhibition of adrenaline-induced platelet aggregation at 2 uM incubated for 4 min prior to adrenaline-induction measured for 5.5 min by turbidometric analysis. In kind it is functional, cell-free.
Test [31] deals with Platelet. Description: Antiaggregating activity in Homo sapiens (human) platelet rich plasma assessed as inhibition of collagen-induced platelet aggregation at 0.8 uM incubated for 4 min prior to collagen-induction measured for 5.5 min by turbidometric analysis. In kind it is functional, cell-free.
Test [32] has as its system Platelet. Description: Antiaggregating activity in Homo sapiens (human) platelet rich plasma assessed as inhibition of ADP-induced platelet aggregation at 2 uM incubated for 4 min prior to ADP-induction measured for 5.5 min by turbidometric analysis. Type of test: functional, cell-free.
The nature of test [33]: Antiaggregating activity in Homo sapiens (human) platelet rich plasma assessed as collagen-induced platelet aggregation at 0.5 uM incubated for 4 min prior to collagen-induction measured for 5.5 min by turbidometric analysis (reference value: 50 to 98%). In kind it is functional.
The test system of test [34] is Platelet. Put plainly: Antiaggregating activity in Homo sapiens (human) platelet rich plasma assessed as inhibition of collagen-induced platelet aggregation at 2 uM incubated for 4 min prior to collagen-induction measured for 5.5 min by turbidometric analysis. Type of test: functional, cell-free.
Test [35] deals with Platelet. Put plainly: Antiaggregating activity in Homo sapiens (human) platelet rich plasma assessed as inhibition of adrenaline-induced platelet aggregation at 0.8 uM incubated for 4 min prior to adrenaline-induction measured for 5.5 min by turbidometric analysis. Type of test: functional, cell-free.
Test [36] can be described thus: Antiaggregating activity in Homo sapiens (human) platelet rich plasma assessed as ristocetin-induced platelet aggregation at 0.8 uM incubated for 4 min prior to ristocetin-induction measured for 5.5 min by turbidometric analysis (reference value: 65 to 99%). In kind it is functional.
The test system of test [37] is Platelet. Description: Antiaggregating activity in Homo sapiens (human) platelet rich plasma assessed as inhibition of ristocetin-induced platelet aggregation at 2 uM incubated for 4 min prior to ristocetin-induction measured for 5.5 min by turbidometric analysis. Type of test: functional, cell-free.
Test [38] deals with Platelet. Put plainly: Antiaggregating activity in Homo sapiens (human) platelet rich plasma assessed as inhibition of arachidonic acid-induced platelet aggregation at 0.8 uM incubated for 4 min prior to arachidonic acid-induction measured for 5.5 min by turbidometric analysis. In kind it is functional, cell-free.
A short description of test [39]: Antiaggregating activity in Homo sapiens (human) platelet rich plasma assessed as arachidonic acid-induced platelet aggregation at 0.5 uM incubated for 4 min prior to arachidonic acid-induction measured for 5.5 min by turbidometric analysis (reference value: 55 to 100%). Type of test: functional.
Test [40] deals with Platelet. Put plainly: Antiaggregating activity in Homo sapiens (human) platelet rich plasma assessed as inhibition of arachidonic acid-induced platelet aggregation at 2 uM incubated for 4 min prior to arachidonic acid-induction measured for 5.5 min by turbidometric analysis. In kind it is functional, cell-free.

`Br.O=C(C1CCCN(Cc2ccc([N+](=O)[O-])cc2)C1)N1CCN(c2ccccc2Cl)CC1` (stereo not given): the Activity in [1] amounted to 28%; in test [2] it was 57%; in test [9], 23%; in [14], 58%; in [16], 50%; in [17] it was 58%. For the same compound, in test [18], the Activity came to 66%. The inhibition result in the test with Platelet [3], in the test with Platelet [4], in the test on Platelet [5], in the test on Platelet [6], in the test on Platelet [7] and in the test on Platelet [8] was “Active” throughout. Further, the inhibition entry in the test with Platelet [10], in the test with Platelet [11], in the test on Platelet [12], in the test with Platelet [13], in the test on Platelet [15] and with Platelet [19] was “Active” in each case. Also, in the test with Platelet [20], the inhibition entry is “Active”.

With `Br.O=C(C1CCCN(Cc2ccc(Br)cc2)C1)N1CCN(c2ccccn2)CC1` (stereo not given), the Activity in [2] amounted to 76%; in test [21], 65%; in test [9], 24%; in test [22] it was 63%; in test [23], 18%; in test [24], 64%. Further, the Activity in test [14] is recorded as 67%; in test [18] it was 91%; in test [25], 81%; in test [26] it was 72%; in test [27], 22%; in test [28], 28%. The inhibition entry in the test with Platelet [4], with Platelet [5], with Platelet [6], in the test with Platelet [7], in the test on Platelet [8] and with Platelet [11] was “Active” each time. Further, the inhibition result with Platelet [13] and in the test on Platelet [15] was “Active” throughout.

`COc1cc(C(=O)N2CCCC(C(=O)N3CCN(c4ncccn4)CC3)C2)cc(OC)c1OC.Cl` (stereo not given): the Activity in [2] worked out at 72%; in test [9], 75%; in test [22], 68%; in [23] it was 50%; in test [33], 78%; in test [14] it was 67%. Besides, the Activity in [36] is given as 55%; in [18], 77%; in test [26] it was 76%; in test [39] it was 54%. Besides, the inhibition result with Platelet [4], in the test on Platelet [29], in the test on Platelet [5], with Platelet [6], with Platelet [7] and with Platelet [30] was “Active” throughout. The inhibition entry in the test on Platelet [31], with Platelet [32], in the test with Platelet [11], in the test on Platelet [34], in the test with Platelet [15] and with Platelet [35] was “Active” throughout. Besides, the inhibition entry in the test on Platelet [37], in the test with Platelet [38] and with Platelet [40] was “Active” each time.
